Results on two molecules are retold here after patent US12252492B2, “Substituted fused pyrrolo-diazepinones and uses thereof” (Northwestern University, priority 2018, dated 2025).

What all share (type): cell-based, human
The subject of one experiment is K-562. As to the kind of experiment: NCI60 one-dose screen, K-562. The note with it: K-562 (Leukemia); NCI 60 one-dose, 10^-5 M. The method, then:
(§1) Anti-cancer activity screening of all compounds was performed by the NCI Developmental Therapeutics Program (DTP) through their NCI60 screening initiative. Assay details can be found at the website dtp.cancer.gov/discovery_development/nci-60/methodology.htm. Information from this website is reproduced here for convenience.
(§2) As of early 2007 all compounds submitted to the NCI 60 Cell screen are tested initially at a single high dose (10^-5 M) in the full NCI 60 cell panel. Only compounds which satisfy pre-determined threshold inhibition criteria in a minimum number of cell lines will progress to the full 5-dose assay. The threshold inhibition criteria for progression to the 5-dose screen was selected to efficiently capture compounds with anti-proliferative activity based on careful analysis of historical DTP screening data. The threshold criteria may be updated as additional data becomes available.
(§3) The One-dose data will be reported as a mean graph of the percent growth of treated cells and will be similar in appearance to mean graphs from the 5-dose assay. […]
(§4) Following drug addition, the plates are incubated for an additional 48 h at 37° C., 5% CO2, 95% air, and 100% relative humidity. […] Bound stain is subsequently solubilized with 10 mM trizma base, and the absorbance is read on an automated plate reader at a wavelength of 515 nm. […]

In another experiment the test system is MOLT-4. As to the kind of experiment: NCI60 one-dose screen, MOLT-4. Conditions: MOLT-4 (Leukemia); NCI 60 one-dose, 10^-5 M. The method, then: as §1, §2, §3, §4
For the next experiment, the system named is RPMI-8226. As to the kind of experiment: NCI60 one-dose screen, RPMI-8226. Conditions: RPMI-8226 (Leukemia); NCI 60 one-dose, 10^-5 M. The method, then:
as §1, §2, §3, §4

The next experiment has as its system A549/ATCC. As to the kind of experiment: NCI60 one-dose screen, A549. The note with it: A549/ATCC (Non-Small Cell Lung Cancer); NCI 60 one-dose, 10^-5 M. The method, then:
as §1, §2
The One-dose data will be reported as a mean graph of the percent growth of treated cells and will be similar in appearance to mean graphs from the 5-dose assay. The number reported for the One-dose assay is growth relative to the no-drug control, and relative to the time zero number of cells. This allows detection of both growth inhibition (values between 0 and 100) and lethality (values less than 0). This is the same as for the 5-dose assay, described below. For example, a value of 100 means no growth inhibition. A value of 40 would mean 60% growth inhibition. A value of 0 means no net growth over the course of the experiment. A value of −40 would mean 40% lethality. A value of −100 means all cells are dead. Information from the One-dose mean graph is available for COMPARE analysis.
The human tumor cell lines of the cancer screening panel are grown in RPMI 1640 medium containing 5% fetal bovine serum and 2 mM L-glutamine. For a typical screening experiment, cells are inoculated into 96 well microtiter plates in 100 μL at plating densities ranging from 5,000 to 40,000 cells/well depending on the doubling time of individual cell lines. After cell inoculation, the microtiter plates are incubated at 37° C., 5% CO2, 95% air and 100% relative humidity for 24 h prior to addition of experimental drugs.
After 24 h, two plates of each cell line are fixed in situ with TCA, to represent a measurement of the cell population for each cell line at the time of drug addition (Tz). Experimental drugs are solubilized in dimethyl sulfoxide at 400-fold the desired final maximum test concentration and stored frozen prior to use. At the time of drug addition, an aliquot of frozen concentrate is thawed and diluted to twice the desired final maximum test concentration with complete medium containing 50 μg/ml gentamicin. Additional four, 10-fold or ½ log serial dilutions are made to provide a total of five drug concentrations plus control. Aliquots of 100 μl of these different drug dilutions are added to the appropriate microtiter wells already containing 100 μl of medium, resulting in the required final drug concentrations.
Following drug addition, the plates are incubated for an additional 48 h at 37° C., 5% CO2, 95% air, and 100% relative humidity. For adherent cells, the assay is terminated by the addition of cold TCA. Cells are fixed in situ by the gentle addition of 50 μl of cold 50% (w/v) TCA (final concentration, 10% TCA) and incubated for 60 minutes at 4° C. The supernatant is discarded, and the plates are washed five times with tap water and air dried. Sulforhodamine B (SRB) solution (100 μl) at 0.4% (w/v) in 1% acetic acid is added to each well, and plates are incubated for 10 minutes at room temperature. After staining, unbound dye is removed by washing five times with 1% acetic acid and the plates are air dried. Bound stain is subsequently solubilized with 10 mM trizma base, and the absorbance is read on an automated plate reader at a wavelength of 515 nm. […]

The subject of another experiment is NCI-H23. As to the kind of experiment: NCI60 one-dose screen, NCI-H23. The note with it: NCI-H23 (Non-Small Cell Lung Cancer); NCI 60 one-dose, 10^-5 M. The method, then: as §1, §2, §3, §4
A further experiment deals with NCI-H322M. As to the kind of experiment: NCI60 one-dose screen, NCI-H322M. The note with it: NCI-H322M (Non-Small Cell Lung Cancer); NCI 60 one-dose, 10^-5 M. The method, then: as §1, §2, §3, §4
Another experiment concerns NCI-H522. As to the kind of experiment: NCI60 one-dose screen, NCI-H522. The note with it: NCI-H522 (Non-Small Cell Lung Cancer); NCI 60 one-dose, 10^-5 M. The method, then: as §1, §2, §3, §4
A further experiment has as its system HCT-116. As to the kind of experiment: NCI60 one-dose screen, HCT-116. Conditions: HCT-116 (Colon Cancer); NCI 60 one-dose, 10^-5 M. The method, then: as §1, §2, §3, §4
The subject of a further experiment is HCT-15. As to the kind of experiment: NCI60 one-dose screen, HCT-15. The note with it: HCT-15 (Colon Cancer); NCI 60 one-dose, 10^-5 M. The method, then: as §1, §2, §3, §4
In a further experiment the test system is SF-268. As to the kind of experiment: NCI60 one-dose screen, SF-268. Conditions: SF-268 (CNS Cancer); NCI 60 one-dose, 10^-5 M. The method, then:
as §1, §2, §3, §4

The next experiment relates to SF-539. As to the kind of experiment: NCI60 one-dose screen, SF-539. The note with it: SF-539 (CNS Cancer); NCI 60 one-dose, 10^-5 M. The method, then:
as §1, §2, §3, §4

The test system of the next experiment is UACC-257. As to the kind of experiment: NCI60 one-dose screen, UACC-257. The note with it: UACC-257 (Melanoma); NCI 60 one-dose, 10^-5 M. The method, then: as §1, §2, §3, §4
The test system of another experiment is IGROV1. As to the kind of experiment: NCI60 one-dose screen, IGROV1. Conditions: IGROV1 (Ovarian Cancer); NCI 60 one-dose, 10^-5 M. The method, then: as §1, §2, §3, §4
The next experiment relates to CAKI-1. As to the kind of experiment: NCI60 one-dose screen, CAKI-1. Conditions: CAKI-1 (Renal Cancer); NCI 60 one-dose, 10^-5 M. The method, then:
as §1, §2, §3, §4

For the next experiment, the system named is MDA-MB-231/ATCC. As to the kind of experiment: NCI60 one-dose screen, MDA-MB-231. Conditions: MDA-MB-231/ATCC (Breast Cancer); NCI 60 one-dose, 10^-5 M. The method, then:
as §1, §2, §3, §4

In another experiment the test system is BT-549. As to the kind of experiment: NCI60 one-dose screen, BT-549. Conditions: BT-549 (Breast Cancer); NCI 60 one-dose, 10^-5 M. The method, then: as §1, §2, §3, §4
The next experiment has as its system T-47D. As to the kind of experiment: NCI60 one-dose screen, T-47D. The note with it: T-47D (Breast Cancer); NCI 60 one-dose, 10^-5 M. The method, then:
as §1, §2, §3, §4

The test system of the next experiment is NCI60 Cell Line Panel. As to the kind of experiment: NCI60 one-dose screen, whole panel statistics. Conditions: mean over the NCI60 cell line panel, 10^-5 M. The method, then:
as §1, §2, §3, §4

For the molecule `CC(=O)N1c2ccccc2NC2=C(C(=O)N(Cc3ccccc3)C2(C)C)C1c1ccco1` (stereo not drawn) [NUCC-608455], the “Growth Percent” value in the experiment with K-562 was 12.60%; in the experiment with MOLT-4, 28.58%; in the experiment with RPMI-8226 it was 23.43%; in the experiment with A549/ATCC, 22.02%; in the experiment with NCI-H23, 20.85%; in the experiment on NCI-H322M, 44.61%. Further, the “Growth Percent” value in the experiment on NCI-H522 is on record as 21.79%; in the experiment on HCT-116 it was 7.52%; in the experiment with HCT-15 it was 15.65%; with SF-268, 42.68%; in the experiment on SF-539, −17.85%; in the experiment on UACC-257, 77.61%. Also, the “Growth Percent” value in the experiment with IGROV1 was 26.78%; in the experiment on CAKI-1 it was 42.97%; with MDA-MB-231/ATCC, 9.25%; in the experiment on BT-549, 47.62%; in the experiment with T-47D it was 35.10%. The “Growth Percent, Mean” value in the experiment on NCI60 Cell Line Panel is 23.48%.

For `CC(=O)N1c2ccccc2NC2=C(C(=O)N(C)C2(C)C)C1c1ccccc1` (stereo not drawn) [NUCC-60872], the “Growth Percent” value in the experiment on K-562 was found to be 16.57%; in the experiment on MOLT-4, 33.27%; with RPMI-8226 it was 12.61%; in the experiment with A549/ATCC it was 80.32%; in the experiment with NCI-H23, 50.21%; in the experiment with NCI-H322M it was 73.36%. Besides, the “Growth Percent” value in the experiment with NCI-H522 amounted to 18.58%; in the experiment on HCT-116, 24.91%; with HCT-15, 93.83%; in the experiment with SF-268 it was 42.99%; in the experiment on SF-539, 20.14%; in the experiment with UACC-257, 36.37%. Further, the “Growth Percent” value in the experiment with IGROV1 is 39.64%; with CAKI-1 it was 71.91%; in the experiment with MDA-MB-231/ATCC, 63.32%; with BT-549 it was 69.46%; in the experiment on T-47D, 28.72%. Further, the “Growth Percent, Mean” value with NCI60 Cell Line Panel is on record as 41.43%.
